Results from ChEMBL document CHEMBL1201862, “PubChem BioAssay data set” (2004).
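48-hour exposure; five concentrations; linearly interpolated endpoints. Abbreviation: GI50, concentration required for 50% inhibition of growth.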 Active and inactive are the calls of the source. Cut-off read from the data, not from the text of the source: active = GI50 up to about 1.1 µM and inactive = higher.

Legend:
Test in all cases: growth of human tumour cells (NCI), 48 h
786-0 = tested on: 786-0
A498 = tested on: A498
NCI/ADR-RES = tested on: NCI/ADR-RES
UACC-62 = tested on: UACC-62
HCT-15 = tested on: HCT-15
SR = tested on: SR
HL-60 = tested on: HL-60
MOLT-4 = tested on: MOLT-4
SF-539 = tested on: SF-539
TK-10 = tested on: TK-10
NCI-H522 = tested on: NCI-H522
SF-295 = tested on: SF-295
A549 = tested on: A549
SF-268 = tested on: SF-268
DU-145 = tested on: DU-145
OVCAR-3 = tested on: OVCAR-3
MDA-N = tested on: MDA-N
LOX IMVI = tested on: LOX IMVI
K562 = tested on: K562
RPMI-8226 = tested on: RPMI-8226

SMILES | GI50 (786-0) | GI50 (A498) | GI50 (NCI/ADR-RES) | GI50 (UACC-62) | GI50 (HCT-15) [µM] | GI50 (SR) | GI50 (HL-60) | GI50 (MOLT-4) | GI50 (SF-539) | GI50 (TK-10) | GI50 (NCI-H522) | GI50 (SF-295) | GI50 (A549) | GI50 (SF-268) | GI50 (DU-145) | GI50 (OVCAR-3) | GI50 (MDA-N) | GI50 (LOX IMVI) | GI50 (K562) | GI50 (RPMI-8226)
Nc1c(C(=O)c2ccccc2)[nH]c(NCc2ccccc2)c1C(=S)Nc1ccccc1 | > 100 µM (inactive) | > 100 µM (inactive) | > 100 µM (inactive) | > 100 µM (inactive) | > 100 | > 100 µM (inactive) | > 100 µM (inactive) | > 100 µM (inactive) | > 100 µM (inactive) | > 100 µM (inactive) | > 100 µM (inactive) | > 100 µM (inactive) | > 100 µM (inactive) | > 100 µM (inactive) | > 100 µM (inactive) | > 100 µM (inactive) | > 100 µM (inactive) | > 100 µM (inactive) | > 100 µM (inactive) | 
CCCCCCCCCCCCCCCCCCNc1nc(=O)n(C2CC(O)C(COP(=O)(O)OCC3OC(n4ccc(N)nc4=O)C(O)C3O)O2)cc1F (stereo not drawn) | 8.34 µM (inactive) | 17.2 µM (inactive) | 17.9 µM (inactive) | 80.4 µM (inactive) | 12.7 | > 100 µM (inactive) |  | 25.9 µM (inactive) | 32.6 µM (inactive) | > 100 µM (inactive) | 3.8 µM (inactive) | > 100 µM (inactive) | 3.25 µM (inactive) | 32.1 µM (inactive) | 25.1 µM (inactive) | > 100 µM (inactive) | > 100 µM (inactive) | 10.2 µM (inactive) | > 100 µM (inactive) | > 100 µM (inactive)
CCCc1c(O)nc(Nc2nc3ccccc3[nH]2)[nH]c1=O | > 100 µM (inactive) | > 100 µM (inactive) | > 100 µM (inactive) | > 100 µM (inactive) | > 100 | > 100 µM (inactive) | 84.9 µM (inactive) | > 100 µM (inactive) | > 100 µM (inactive) | > 100 µM (inactive) | 71.3 µM (inactive) | > 100 µM (inactive) | > 100 µM (inactive) | > 100 µM (inactive) | > 100 µM (inactive) |  | > 100 µM (inactive) |  | > 100 µM (inactive) | > 100 µM (inactive)
Nc1nc(NNc2ccc(Cl)c(Cl)c2)cc(=O)[nH]1 | 21.6 µM (inactive) | > 100 µM (inactive) | 47.5 µM (inactive) |  | 19.7 | 31.7 µM (inactive) | 26.4 µM (inactive) | 19.4 µM (inactive) | 99.1 µM (inactive) | > 100 µM (inactive) |  | 54.1 µM (inactive) | 45.7 µM (inactive) | 19.7 µM (inactive) | 35.8 µM (inactive) | 23 µM (inactive) | 35.5 µM (inactive) | 17.3 µM (inactive) | 18.9 µM (inactive) | 32.2 µM (inactive)
Fc1cccc2nc(-c3ccccc3)cc(OCc3ccccc3)c12 | > 100 µM (inactive) | > 100 µM (inactive) | > 100 µM (inactive) | > 100 µM (inactive) | > 100 | > 100 µM (inactive) | > 100 µM (inactive) | > 100 µM (inactive) |  | > 100 µM (inactive) | 71.8 µM (inactive) | > 100 µM (inactive) | 83.4 µM (inactive) | > 100 µM (inactive) | > 100 µM (inactive) | > 100 µM (inactive) | > 100 µM (inactive) | > 100 µM (inactive) | > 100 µM (inactive) | > 100 µM (inactive)
Cc1occc1C(=S)Nc1ccc(Cl)c(C(=O)OC(C(C)C)C(C)C)c1 | 13.7 µM (inactive) | 13.6 µM (inactive) | 9.98 µM (inactive) | 10.8 µM (inactive) | 13.1 | 7 µM (inactive) | 10.8 µM (inactive) | 5.32 µM (inactive) | 16.4 µM (inactive) | 15.3 µM (inactive) | 11.8 µM (inactive) | 5.47 µM (inactive) | 11.6 µM (inactive) | 18.5 µM (inactive) | 13.7 µM (inactive) | 13.4 µM (inactive) | 12.1 µM (inactive) | 13 µM (inactive) |  | 6.11 µM (inactive)
NC1=NC(c2ccc(Cl)cc2)N(c2ccc(S(N)(=O)=O)cc2)C(N)=N1 (stereo not drawn) | > 100 µM (inactive) | > 100 µM (inactive) | > 100 µM (inactive) | > 100 µM (inactive) | > 100 | > 100 µM (inactive) |  | > 100 µM (inactive) | > 100 µM (inactive) | > 100 µM (inactive) | > 100 µM (inactive) | > 100 µM (inactive) | > 100 µM (inactive) | > 100 µM (inactive) | > 100 µM (inactive) | > 100 µM (inactive) | > 100 µM (inactive) | > 100 µM (inactive) | > 100 µM (inactive) | > 100 µM (inactive)
COC(=O)c1ccc(C)cc1C1CN=NC12Cc1cc(C)c(C)cc1C2=O (stereo not drawn) | 54.7 µM (inactive) | 57.4 µM (inactive) | 28.6 µM (inactive) |  | 48.1 | 48.5 µM (inactive) | 19.7 µM (inactive) | 26.7 µM (inactive) | 50.6 µM (inactive) | > 100 µM (inactive) | 27.7 µM (inactive) | 47.3 µM (inactive) | 34.4 µM (inactive) | 36.6 µM (inactive) | 59.2 µM (inactive) | 49.5 µM (inactive) | 27.9 µM (inactive) | 25.9 µM (inactive) | 27.4 µM (inactive) | 27.9 µM (inactive)
CCOC(=O)c1cc(Sc2ccc(N)c(C(=O)OCC)c2)ccc1N | 26.4 µM (inactive) | 21.6 µM (inactive) | 5.25 µM (inactive) | 9.42 µM (inactive) | > 100 | 6.95 µM (inactive) | 16.7 µM (inactive) | 8.24 µM (inactive) | 24.9 µM (inactive) |  | 4.38 µM (inactive) | 3.3 µM (inactive) | 19.6 µM (inactive) | 16.1 µM (inactive) | > 100 µM (inactive) | 24.8 µM (inactive) | 5.43 µM (inactive) |  | 7.98 µM (inactive) | 24 µM (inactive)
Cc1sc2c(c1C)C(=O)c1cccn1-2 | 87.7 µM (inactive) | 60 µM (inactive) | > 100 µM (inactive) | 62.7 µM (inactive) | > 100 | 19.3 µM (inactive) |  | 38.8 µM (inactive) |  | > 100 µM (inactive) | 92 µM (inactive) | > 100 µM (inactive) | 60.5 µM (inactive) | > 100 µM (inactive) | 95.3 µM (inactive) | > 100 µM (inactive) | 28.6 µM (inactive) | 64.9 µM (inactive) | 38.8 µM (inactive) | 50.7 µM (inactive)
O=C1CCc2cc3c(cc21)CC1(Cc2cc4c(cc2C1)CCCC4)C3 |  | 61.5 µM (inactive) | > 100 µM (inactive) | 39.9 µM (inactive) | 69 | 5.52 µM (inactive) | 27.9 µM (inactive) | > 100 µM (inactive) | > 100 µM (inactive) | > 100 µM (inactive) | 26 µM (inactive) | 33.9 µM (inactive) | 88.9 µM (inactive) | > 100 µM (inactive) | > 100 µM (inactive) | 53.6 µM (inactive) | 4.82 µM (inactive) | 58.5 µM (inactive) | 23.6 µM (inactive) | > 100 µM (inactive)
N#CC12CC(C=O)=C(N)C1(C#N)CC(C=O)=C2N (stereo not drawn) | > 100 µM (inactive) | > 100 µM (inactive) | > 100 µM (inactive) | 36.2 µM (inactive) | 8.34 | 37.7 µM (inactive) | 23.7 µM (inactive) | 50.8 µM (inactive) | 81.8 µM (inactive) | > 100 µM (inactive) | > 100 µM (inactive) | > 100 µM (inactive) | > 100 µM (inactive) | 31.1 µM (inactive) | 46 µM (inactive) |  | 32.4 µM (inactive) | 34.4 µM (inactive) | 45.9 µM (inactive) | 52.6 µM (inactive)
O=C(C#CP(=O)(O)c1ccccc1)c1ccccc1 | > 100 µM (inactive) | > 100 µM (inactive) | > 100 µM (inactive) | > 100 µM (inactive) | > 100 | > 100 µM (inactive) |  |  | > 100 µM (inactive) | > 100 µM (inactive) | > 100 µM (inactive) | > 100 µM (inactive) | > 100 µM (inactive) | > 100 µM (inactive) | > 100 µM (inactive) | > 100 µM (inactive) | > 100 µM (inactive) | > 100 µM (inactive) | > 100 µM (inactive) | 
COc1ccc2c3c1OC1C34CCN(C)C(C2)C4=CC(I)C1(OC)OC (stereo not drawn) | 4.15 µM (inactive) | 22.9 µM (inactive) | 41.5 µM (inactive) | 14.6 µM (inactive) | 11.8 | 2.36 µM (inactive) |  | 3.15 µM (inactive) | 1.79 µM (inactive) | 14.7 µM (inactive) | 5.27 µM (inactive) | 41.5 µM (inactive) | 22.2 µM (inactive) | 16.7 µM (inactive) | 10.8 µM (inactive) | 5.87 µM (inactive) | 6.14 µM (inactive) | 7.33 µM (inactive) | 2.77 µM (inactive) | 2.71 µM (inactive)
FC(F)(Sc1ncccn1)c1nc2ccccc2o1 | > 100 µM (inactive) | > 100 µM (inactive) | > 100 µM (inactive) | > 100 µM (inactive) | > 100 | 37.8 µM (inactive) |  | 57.3 µM (inactive) | > 100 µM (inactive) | > 100 µM (inactive) | > 100 µM (inactive) | > 100 µM (inactive) | > 100 µM (inactive) | > 100 µM (inactive) | > 100 µM (inactive) | > 100 µM (inactive) | > 100 µM (inactive) |  | 77.4 µM (inactive) | > 100 µM (inactive)
